Assay results from US5384113A, “Stabilizers to prevent autoradiolysis of radiolabeled peptides and proteins” (priority 1993, dated 1995).

Key:
[1] = Stability (radiochemical purity) of 111In DTPA-octreotide solution at room temperature by reverse-phase HPLC with radiometric detector; type: physicochemical; conditions: alone or in combination with other stabilizers; summary of Examples 1-7
Protocol: (§1) To a lyophilized kit containing 10 μg DTPA-octreotide (N-[3,6,9,9-tetrakis(carboxymethyl)-3,6,9-triazanonanoyl]-D-phenylalanyl-L -hemicystyl-L-phenylalanyl-D-tryptophyl-L-lysyl-L-threonyl-L-hemicydyyl-L-t hreoninol cyclic (2→7) disulfide, MW=1394.60 gm/mol), 5.6 mg trisodium citrate dihydrate, and 0.4 mg citric acid monohydrate was added 1.0 ml of 0.02M HCl containing 4.70 mCi of ^111 In. The pH of the solution was 4.5. The solution was kept at room temperature and monitored for the amount of ^111 In DTPA-octreotide using reverse-phase HPLC and a Beckman 170 radiometric detector. […]
as §1, with “dihydrate,” for “dihydrate, and”, “monohydrate, and 1.0 mg inositol” for “monohydrate”, “6.04” for “4.70”, “The pH of the solution was 4.5.” left out

somatostatin receptors = conditions: variety of human tumors; cited from earlier work

SMILES | Prevention of radiolysis of radiolabeled peptides (stabilizer effect) [1] | Binding affinity to somatostatin receptors (somatostatin receptors)
O=C(O)c1cc(O)ccc1O [gentisic acid, 2,5-dihydroxybenzoic acid] | very effective at preventing radiolysis | –
C[C@@H](O)[C@@H]1NC(=O)[C@H](CCCCN)NC(=O)[C@@H](Cc2c[nH]c3ccccc23)NC(=O)[C@H](Cc2ccccc2)NC(=O)[C@@H](NC(=O)[C@H](N)Cc2ccccc2)CSSC[C@@H](C(=O)N[C@H](CO)[C@@H](C)O)NC1=O [octreotide] | – | very high binding affinity
